Experimental data published in ChEMBL document CHEMBL1138313, “Cyclization of the acyl glucuronide metabolite of a neutral endopeptidase inhibitor to an electrophilic glutarimide: synthesis, reactivity, and mechanistic analysis” (J Med Chem, 2007).

Legend:
Format in all cases: ADME, organism-based
[1] = Biodistribution in Wistar rat bile at 50 umol/kg, iv after 5 hrs; conditions: read-out: Drug uptake
[2] = Biodistribution in Wistar rat bile at 50 umol/kg, iv after 1 hr; conditions: read-out: Drug uptake
Rattus norvegicus = assay: Biodistribution in Wistar rat bile at 15 umol/kg, iv; conditions: in vivo
[3] = Biodistribution in Wistar rat bile assessed as drug elimination at 15 umol/kg, iv after 1 hr; conditions: read-out: Drug uptake
[4] = Biodistribution in Wistar rat bile assessed as drug elimination at 15 umol/kg, iv after 5 hrs; conditions: read-out: Drug uptake
[5] = Biodistribution in Wistar rat urine at 15 umol/kg, iv after 5 hrs; conditions: read-out: Drug uptake
Plasma = assay: Biodistribution in Wistar rat plasma per mL at 15 umol/kg, iv after 5 hrs; conditions: in vivo

dose excreted at 5 h [1] | dose excreted at 1 h [2] | Drug uptake (Rattus norvegicus) | dose excreted at 1 h [3] | dose excreted at 5 h [4] | dose excreted at 5 h [5] | Drug uptake (Plasma) | Compound
11% | 4.5% | 6% |  |  |  |  | CCC[C@@H]1CC2(CCCC2)C(=O)N(c2nnc(CC)s2)C1=O
 |  |  | 28.7% | 75.1% | 4.9% | 0.3 %ID | CCC[C@H](CC1(C(=O)Nc2nn[14c](CC)s2)CCCC1)C(=O)O
